# Assay results taken from patent US20150139971A1, “METHOD FOR PREPARING REGULATORY DENDRITIC CELLS” (NIPPON KAYAKU KABUSHIKI KAISHA, priority 2010, published 2015).
# What was measured:
# [1] = system: graft-versus-host disease model; settings: Non-patent Document 5; cited from earlier work
# [2] = system: dendritic cells derived from C57BL/6 mouse bone marrow cells; test: IL-6 and IL-12p40 in culture supernatant of dendritic cells by ELISA; type: cell-based
# Protocol: (§1) The C57BL/6 mouse bone marrow cells were cultured for 7 days in 10% FCS-RPMI1640 medium containing 20 ng/mL GM-CSF (Peprotech, origin: rabbit) and 20 ng/mL IL-4 (Peprotech, origin: rabbit) so as to cause the cells to differentiate into dendritic cells. Subsequently, 20 ng/mL TNF-α (Peprotech, origin: rabbit) was added for maturation. Treatment with NK026680 was performed by adding 50 ng/mL NK026680 on days 2 and 4 of culture and adding 250 ng/mL NK026680 on day 6 of culture.
# In this Example 2, in a manner similar to that in Example 1, the dendritic cells of the present invention treated with NK026680 and untreated dendritic cells, which had been obtained by differentiation and maturation of C57BL/6 mouse bone marrow cells, were obtained. After stimulation with TNF, cells were cultured for 24 hours. The thus obtained culture supernatant was collected, and then the concentrations of immune-response-stimulating cytokines, IL-6 and IL-12p40, were measured by ELISA (BD bioscience) (n=3).
# [3] = system: autoimmune angiitis model; settings: Non-patent Document 6; cited from earlier work
# [4] = system: dendritic cells; settings: dendritic cells cultured in the presence of the compound; cited from earlier work
# [5] = system: dendritic cells derived from C57BL/6 mouse bone marrow cells; test: Expression of costimulatory molecules CD40, CD80, CD86 by flow cytometry (MFI) on matured dendritic cells; type: cell-based
# Protocol: as §1
# The BALB/c mouse-derived spleen cell extract was added to dendritic cells derived from bone marrow cells which were collected from the C57BL/6 mouse, thereby causing cells to present a BALB/c antigen. The effect of incorporating the BALB/c antigen was confirmed by measuring the expression of 1-Ad (antibody: BD pharmingen), which is a BALB/c major histocompatibility complex (MHC), by flow cytometry. At this time, cells were cultured in the presence or the absence of NK026680, and the cells were allowed to mature with TNF-α (Peprotech, origin: rabbit). Maturation of dendritic cells was confirmed by flow cytometric analysis of the expression of the mature dendritic cell marker. Fluorescence-labeled antibodies against CD40, CD80 and CD86 costimulatory molecules were reacted in NK026680-treated dendritic cells (NK-DC) of the present invention and untreated dendritic cells (CTR-DC). Mean fluorescence intensity (MFI) was measured by flow cytometry, so that the expression levels of CD40, CD80, and CD86 were compared.
structure (smiles),measurement,setting,value
"COc1ccc(-c2ccnc3nc(NC(=O)N[C@@H](C)CCCC(C)(C)O)nn23)cc1 [NK026680, (S)-(+)-1-(5-hydroxy-1,5-dimethylhexyl)-3-[7-(4-methoxyphenyl)-[1,2,4]triazolo[1,5-a]pyrimidin-2-yl]urea]",effects against a graft-versus-host disease model,[1],exhibited effects
same,IL-6,"[2]; culture supernatant 24 hours after TNF stimulation, n=3, untreated cells 1235 ± 272",219 ± 94 pg/mL
same,IL-12p40,"[2]; culture supernatant 24 hours after TNF stimulation, n=3, untreated cells 1555 ± 650",347 ± 100 pg/mL
same,concentrations of IL-6 and IL-12p40 in culture supernatant compared with untreated dendritic cells,[2]; in words,lower
same,effects against an autoimmune angiitis model,[3],exhibited effects
same,expression level of a costimulatory molecule,[4],decreased
same,CD40 (MFI),"[5]; NK026680 50 ng/mL on days 2 and 4, 250 ng/mL on day 6, BALB/c antigen, matured with TNF-α, untreated cells 244",159 MFI
same,CD86 (MFI),"[5]; NK026680 50 ng/mL on days 2 and 4, 250 ng/mL on day 6, BALB/c antigen, matured with TNF-α, untreated cells 356",217 MFI
same,CD80 (MFI),"[5]; NK026680 50 ng/mL on days 2 and 4, 250 ng/mL on day 6, BALB/c antigen, matured with TNF-α, untreated cells 659",320 MFI
same,"expression levels of CD40, CD80 and CD86 compared with untreated dendritic cells (CTR-DC)",[5]; in words,lower
